{"source": "patent US10597388B2", "about": "“Pyridazinone herbicides” (FMC CORPORATION, priority 2014, dated 2020)", "assay_in_all_cases": "Test E greenhouse herbicide test, pre- and postemergence", "format_in_all_cases": "in vivo", "conditions_in_all_cases": "Preemergence", "key": {"[1]": {"tested_on": "velvetleaf (Abutilon theophrasti)", "how_it_was_run": "(§1)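 Seedlings reaching 2–18 cm (1- to 4-leaf stage) received foliar treatment, while seeds in silt loam received a soil surface spray; the vehicle in each case was a non-phytotoxic solvent mixture including surfactant. Visual scoring versus controls followed 14–21 d later on a 0–100 scale.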"}, "[2]": {"tested_on": "pigweed, palmer (palmer pigweed, Amaranthus palmeri)", "how_it_was_run": "as §1"}, "[3]": {"tested_on": "goosegrass (Eleusine indica)", "how_it_was_run": "as §1"}, "[4]": {"tested_on": "crabgrass, Brazilian (Brazilian crabgrass, Digitaria horizontalis)", "how_it_was_run": "as §1"}, "[5]": {"tested_on": "barnyardgrass (Echinochloa crus-galli)", "how_it_was_run": "as §1"}, "[6]": {"tested_on": "corn (Zea mays)", "how_it_was_run": "as §1"}, "[7]": {"tested_on": "nightshade (eastern black nightshade, Solanum ptycanthum)", "how_it_was_run": "as §1"}, "[8]": {"tested_on": "kochia (Kochia scoparia)", "how_it_was_run": "as §1"}, "[9]": {"tested_on": "foxtail, green (green foxtail, Setaria viridis)", "how_it_was_run": "as §1"}, "[10]": {"tested_on": "ragweed (common ragweed, Ambrosia elatior)", "how_it_was_run": "as §1"}, "[11]": {"tested_on": "johnsongrass (Sorghum halepense)", "how_it_was_run": "as §1"}, "[12]": {"tested_on": "waterhemp (common waterhemp, Amaranthus rudis)", "how_it_was_run": "as §1"}, "[13]": {"tested_on": "Italian ryegrass (Lolium multiflorum)", "how_it_was_run": "as §1"}, "[14]": {"tested_on": "sandbur (southem sandbur, Cenchrus echinatus)", "how_it_was_run": "as §1"}, "[15]": {"tested_on": "surinam grass (Brachiaria decumbens)", "how_it_was_run": "as §1"}, "[16]": {"tested_on": "crabgrass, large (large crabgrass, Digitaria sanguinalis)", "how_it_was_run": "as §1"}, "[17]": {"tested_on": "nutsedge, yellow (yellow nutsedge, Cyperus esculentus)", "how_it_was_run": "as §1"}, "[18]": {"conditions": "62 g ai/ha, scale 0 to 100 (0 no effect, 100 complete control)"}, "[19]": {"conditions": "125 g ai/ha, scale 0 to 100 (0 no effect, 100 complete control)"}, "[20]": {"conditions": "31 g ai/ha, scale 0 to 100, 0 no effect, 100 complete control"}, "[21]": {"conditions": "250 g ai/ha, visual, scale 0 no effect to 100 complete control"}, "[22]": {"conditions": "125 g ai/ha, visual, scale 0 no effect to 100 complete control"}}, "data": [{"smiles": "CCOC(=O)Oc1c(C)nn(C)c(=O)c1-c1c(CC)ccc2ccccc12", "note": "[Compound 37]", "values": [{"measurement": "Plant response rating, Velvetleaf", "setting": "[1]; [18]", "value": 50}, {"measurement": "Plant response rating, Velvetleaf", "setting": "[1]; [19]", "value": 70}, {"measurement": "Plant response rating, Velvetleaf", "setting": "[1]; [20]", "value": 30}, {"measurement": "Plant response rating, Velvetleaf", "setting": "[1]; [21]", "value": 100}, {"measurement": "Plant response rating, Pigweed, Palmer", "setting": "[2]; [18]", "value": 90}, {"measurement": "Plant response rating, Pigweed, Palmer", "setting": "[2]; [19]", "value": 100}, {"measurement": "Plant response rating, Pigweed, Palmer", "setting": "[2]; [20]", "value": 0}, {"measurement": "Plant response rating, Pigweed, Palmer", "setting": "[2]; [21]", "value": 100}, {"measurement": "Plant response rating, Goosegrass", "setting": "[3]; [18]", "value": 35}, {"measurement": "Plant response rating, Goosegrass", "setting": "[3]; [20]", "value": 35}, {"measurement": "Plant response rating, Goosegrass", "setting": "[3]; [22]", "value": 75}, {"measurement": "Plant response rating, Goosegrass", "setting": "[3]; [21]", "value": 80}, {"measurement": "Plant response rating, Crabgrass, Brazil", "setting": "[4]; [18]", "value": 85}, {"measurement": "Plant response rating, Crabgrass, Brazil", "setting": "[4]; [20]", "value": 70}, {"measurement": "Plant response rating, Crabgrass, Brazil", "setting": "[4]; [22]", "value": 90}, {"measurement": "Plant response rating, Crabgrass, Brazil", "setting": "[4]; [21]", "value": 95}, {"measurement": "Plant response rating, Barnyardgrass", "setting": "[5]; [18]", "value": 0}, {"measurement": "Plant response rating, Barnyardgrass", "setting": "[5]; [20]", "value": 0}, {"measurement": "Plant response rating, Barnyardgrass", "setting": "[5]; [22]", "value": 0}, {"measurement": "Plant response rating, Barnyardgrass", "setting": "[5]; [21]", "value": 30}, {"measurement": "Plant response rating, Corn", "setting": "[6]; [18]", "value": 0}, {"measurement": "Plant response rating, Corn", "setting": "[6]; [20]", "value": 0}, {"measurement": "Plant response rating, Corn", "setting": "[6]; [22]", "value": 0}, {"measurement": "Plant response rating, Corn", "setting": "[6]; [21]", "value": 0}, {"measurement": "Plant response rating, Nightshade", "setting": "[7]; [18]", "value": 80}, {"measurement": "Plant response rating, Nightshade", "setting": "[7]; [19]", "value": 98}, {"measurement": "Plant response rating, Nightshade", "setting": "[7]; [20]", "value": 90}, {"measurement": "Plant response rating, Nightshade", "setting": "[7]; [21]", "value": 98}, {"measurement": "Plant response rating, Kochia", "setting": "[8]; [18]", "value": 0}, {"measurement": "Plant response rating, Kochia", "setting": "[8]; [20]", "value": 0}, {"measurement": "Plant response rating, Kochia", "setting": "[8]; [22]", "value": 0}, {"measurement": "Plant response rating, Kochia", "setting": "[8]; [21]", "value": 65}, {"measurement": "Plant response rating, Foxtail, Green", "setting": "[9]; [18]", "value": 60}, {"measurement": "Plant response rating, Foxtail, Green", "setting": "[9]; [20]", "value": 0}, {"measurement": "Plant response rating, Foxtail, Green", "setting": "[9]; [22]", "value": 65}, {"measurement": "Plant response rating, Foxtail, Green", "setting": "[9]; [21]", "value": 80}, {"measurement": "Plant response rating, Ragweed", "setting": "[10]; [18]", "value": 90}, {"measurement": "Plant response rating, Ragweed", "setting": "[10]; [19]", "value": 95}, {"measurement": "Plant response rating, Ragweed", "setting": "[10]; [20]", "value": 50}, {"measurement": "Plant response rating, Ragweed", "setting": "[10]; [21]", "value": 98}, {"measurement": "Plant response rating, Johnsongrass", "setting": "[11]; [18]", "value": 0}, {"measurement": "Plant response rating, Johnsongrass", "setting": "[11]; [20]", "value": 0}, {"measurement": "Plant response rating, Johnsongrass", "setting": "[11]; [22]", "value": 100}, {"measurement": "Plant response rating, Johnsongrass", "setting": "[11]; [21]", "value": 100}, {"measurement": "Plant response rating, Waterhemp", "setting": "[12]; [18]", "value": 75}, {"measurement": "Plant response rating, Waterhemp", "setting": "[12]; [19]", "value": 98}, {"measurement": "Plant response rating, Waterhemp", "setting": "[12]; [20]", "value": 0}, {"measurement": "Plant response rating, Waterhemp", "setting": "[12]; [21]", "value": 100}, {"measurement": "Plant response rating, Ryegrass, Italian", "setting": "[13]; [18]", "value": 95}, {"measurement": "Plant response rating, Ryegrass, Italian", "setting": "[13]; [19]", "value": 100}, {"measurement": "Plant response rating, Ryegrass, Italian", "setting": "[13]; [20]", "value": 85}, {"measurement": "Plant response rating, Ryegrass, Italian", "setting": "[13]; [21]", "value": 100}, {"measurement": "Plant response rating, Sandbur", "setting": "[14]; [18]", "value": 35}, {"measurement": "Plant response rating, Sandbur", "setting": "[14]; [19]", "value": 50}, {"measurement": "Plant response rating, Sandbur", "setting": "[14]; [20]", "value": 20}, {"measurement": "Plant response rating, Sandbur", "setting": "[14]; [21]", "value": 65}, {"measurement": "Plant response rating, Surinam Grass", "setting": "[15]; [18]", "value": 75}, {"measurement": "Plant response rating, Surinam Grass", "setting": "[15]; [19]", "value": 75}, {"measurement": "Plant response rating, Surinam Grass", "setting": "[15]; [20]", "value": 50}, {"measurement": "Plant response rating, Surinam Grass", "setting": "[15]; [21]", "value": 90}, {"measurement": "Plant response rating, Crabgrass, Large", "setting": "[16]; [18]", "value": 75}, {"measurement": "Plant response rating, Crabgrass, Large", "setting": "[16]; [20]", "value": 50}, {"measurement": "Plant response rating, Crabgrass, Large", "setting": "[16]; [22]", "value": 80}, {"measurement": "Plant response rating, Crabgrass, Large", "setting": "[16]; [21]", "value": 90}, {"measurement": "Plant response rating, Nutsedge, Yellow", "setting": "[17]; [18]", "value": 0}, {"measurement": "Plant response rating, Nutsedge, Yellow", "setting": "[17]; [19]", "value": 65}, {"measurement": "Plant response rating, Nutsedge, Yellow", "setting": "[17]; [20]", "value": 0}, {"measurement": "Plant response rating, Nutsedge, Yellow", "setting": "[17]; [21]", "value": 70}]}]}
